{"source": "patent US20150361063A1", "about": "“TREATMENT OF AMYLOIDOSIS BY COMPOUNDS THAT REGULATE RETROMER STABILIZATION” (Brandeis University, priority 2011, published 2015)", "key": {"intact retromer complex": {"target": "T1, intact retromer complex (Homo sapiens, UniProt Q96QK1+Q9UBQ0)", "T1 construct": "made in house", "assay": "fluorescence thermal stability assay with reconstituted retromer", "type": "binding", "source_text": "We set out to screen and identify compounds that stabilized the active retromer complex, thereby preventing VPS35 degradation and increasing the steady-state level of the complex, which may reduce toxic Abeta. To cast our net wider, we set out to perform virtual screening by docking first, and we were able to do that because crystal structures of several retromer components and, more importantly, the VPS35-VPS29 binary complex, had been published. […] After two years of trial and error in overcoming technical obstacles, we finally succeeded in expressing and purifying each of the individual retromer components separately, and then reconstituting the complete complex in vitro.\nWe then obtained tested, in a real fluorescence stability assay using our reconstituted retromer, a total of about 50 compounds from our list of the 200 “top hits” in the docking run. It should be noted that there are a total of 7 sites that were identified from the computational surface mapping approach, and we considered anything with a G-score below −7.00 to be in the “top hits”. Four of the sites contained almost all the top hits, so compounds were actually assayed only if they were in the top 200 by G-score and were predicted to bind well to one of these four sites."}, "animal models for cancer": {"tested_on": "animal models for cancer", "details": "three different animal models for cancer; cited from earlier work"}, "mice": {"tested_on": "mice", "details": "up to 30 mg/kg; cited from earlier work"}}}
{"smiles": "N=C(N)SCc1ccc(CSC(=N)N)s1", "note": "[compound 55712, [5-(carbamimidoylsulfanylmethyl)thiophen-2-yl]methyl carbamimidothioate]", "values": [{"measurement": "hit in actual experimental assays", "setting": "intact retromer complex; compounds from top docking hits of site 2 (VPS35-VPS29 interface)", "result": "positive hits"}, {"measurement": "stabilization of the intact retromer complex (thermal stability)", "setting": "intact retromer complex; increase in thermal stability, reconstituted retromer, FIG. 1", "result": 10, "unit": "degrees Celsius"}, {"measurement": "antitumor activity", "setting": "animal models for cancer", "result": "no antitumor activity"}, {"measurement": "toxicity to mice", "setting": "mice", "result": "not toxic"}]}
